This experiment addresses cAMP and cAMP-inhibited cGMP 3',5'-cyclic phosphodiesterase 10A (Homo sapiens, UniProt Q9Y233). Put plainly: PDE10A assay. In short, it runs like this: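 Scintillation proximity readout of [3H]cGMP hydrolysis (50 nM final substrate, 15 min) by 2 ng/well human PDE10A after 15 min compound preincubation at RT, pH 7.5 with MgCl2. Four-parameter logistic fit gave IC50, reported as pIC50.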

Structures are written as SMILES.

For `COc1ccc2c(c1)c(=O)n(C)c1c(C)nc(-c3ccccc3Cl)n21` [Roche-Dataset for PDE10A, Compound 965], the IC50 (usually the midpoint of a concentration-inhibition curve) amounted to 7.7 nM.
As to `Cn1ncc(C(=O)N2CC(F)C2)c1C(=O)Nc1ccn2nc(-c3ccccc3)nc2c1` [Roche-Dataset for PDE10A, Compound 165], the IC50 amounted to 0.36 nM.
Compound `Cc1c(Cl)cc(Cl)c2nc(CCc3cn4c(n3)SCC4)nn12` [Roche-Dataset for PDE10A, Compound 760] registered an IC50 of 27 nM. Against the preceding compound, the IC50 is about 75-fold higher.
In turn, `Cn1ncc(C(=O)N2CCC2)c1C(=O)Nc1ccn(C(F)F)n1` [Roche-Dataset for PDE10A, Compound 1100] registered an IC50 of 761 nM.
Under `Cc1c(Cl)cc(C(F)(F)F)c2nc(/C=C/c3nc(N4CCCC4)nn3C)nn12` [Roche-Dataset for PDE10A, Compound 154] stands 2.74 nM; under `COc1nc(OCc2nc(-c3ccccc3)cn2C)nc2ccccc12` [Roche-Dataset for PDE10A, Compound 411], 61 nM.
Compound `Cc1cc(C)n2nc(/C=C/c3nc(N4CCCC4)nn3C3CC3)nc2n1` [Roche-Dataset for PDE10A, Compound 350] came in with an IC50 of 21 nM.
For `CC(=O)c1nn(C)cc1NC(=O)c1nc(C2CC2)cnc1Nc1cncnc1` [Roche-Dataset for PDE10A, Compound 1016], the IC50 was determined as 49 nM.
For `CN(C)c1nc(OCc2cc3ccccn3n2)nc2ccc(Cl)cc12` [Roche-Dataset for PDE10A, Compound 586], inhibition was half-maximal at 423 nM (IC50).
Compound `CNC(=O)c1c(NC(=O)c2nc(C3CC3)cnc2Nc2cncnc2)cnn1CCC(F)(F)F` [US8703768, 173] displayed an IC50 of 19 nM.
The compound `Cn1nc(-c2ccc(Cl)cn2)cc1NC(=O)c1nc(C2CC2)ccc1Nc1cncnc1` [US8470820, 39] registered an IC50 of 3.16 nM.
Under `COCCNC(=O)c1cc2[nH]c(-c3ccccc3)nc2cc1NC(=O)c1cc(C2CC2)cnc1OC` [Roche-Dataset for PDE10A, Compound 349] stands 0.66 nM; under `CCOc1ccccc1C(=O)Nc1cc(-c2ccccn2)nn1C` [Roche-Dataset for PDE10A, Compound 666], 2380 nM.
For `CNC(=O)c1cc2[nH]c(-c3ccccc3)nc2cc1NC(=O)c1ccnnc1` [Roche-Dataset for PDE10A, Compound 466] the value was 23 nM; for `COc1ccccc1-c1nc2cc(NC(=O)c3c(C(=O)N4CCC4)cnn3C)ccn2n1` [Roche-Dataset for PDE10A, Compound 120], 0.6 nM.
For `CN(c1nc2cc(NC(=O)c3c(C(=O)N4CCC4)cnn3C)ccn2n1)C1CC1` [Roche-Dataset for PDE10A, Compound 450] the value was 0.87 nM; for `CN(C)C(=O)c1cnn(C)c1C(=O)N[C@@H]1CCn2cc(-c3ccccc3OC(F)F)nc2C1` [Roche-Dataset for PDE10A, Compound 317], 19 nM.
`CCn1ccc(NC(=O)c2nc(C3CC3)ccc2Nc2cncnc2)n1` [Roche-Dataset for PDE10A, Compound 819] came in with an IC50 of 72 nM. This IC50 is about 3.8-fold higher than that of the compound before.
Turning to `O=C(Nc1ccnnc1)c1nc(C2CC2)cnc1Nc1cncnc1` [Roche-Dataset for PDE10A, Compound 1083], the IC50 was determined as 288 nM. Against the preceding compound, the IC50 is about 4-fold higher.
For the compound `CC(C)n1ncc2cc(CCc3nc(-c4ccccc4)cn3C)ncc21` [Roche-Dataset for PDE10A, Compound 48], it took 859 nM to reach half-maximal inhibition (IC50).
Under `COc1ccc(NC(=O)c2nc(C3CC3)cnc2Nc2cncnc2)nn1` [Roche-Dataset for PDE10A, Compound 1054] stands 1480 nM.
Consider `O=C1c2ccccc2C(=O)N1CCc1csc(-c2cccnc2)n1` [Roche-Dataset for PDE10A, Compound 292], for which half-maximal inhibition (IC50) required 5910 nM. This IC50 lies about 4-fold higher than the previous one.
For `COc1cc(NC(=O)c2ccc3cc(-c4ccccc4)nn3c2)ccn1` [Roche-Dataset for PDE10A, Compound 365] the value was 144 nM; for `CN1CCC(n2nc(-c3ccccn3)cc2NC(=O)c2nc(C3CC3)ccc2Nc2cncnc2)CC1` [US8470820, 43], 4.15 nM; for `O=C(NCc1ncco1)c1nc(C2CC2)cnc1Nc1cncnc1` [Roche-Dataset for PDE10A, Compound 1086], 1030 nM.
In turn, `O=C(N[C@@H]1C[C@H]1c1ccccc1)c1nc(C2CC2)cnc1Nc1cncnc1` [Roche-Dataset for PDE10A, Compound 749] registered an IC50 of 711 nM.
Under `O=C(Nc1ccnc(Cl)n1)c1cn(-c2ccc3ccccc3n2)cn1` [Roche-Dataset for PDE10A, Compound 627] stands 1230 nM.
The compound `COc1c(C)cnc(CCc2ccc3ccccc3n2)c1C` [Roche-Dataset for PDE10A, Compound 701] returned an IC50 of 1480 nM.
In the case of `Cn1ncc(C(N)=O)c1C(=O)Nc1ccn2nc(-c3ccccc3)nc2c1` [Roche-Dataset for PDE10A, Compound 401], the half-inhibitory concentration (IC50) came to 16 nM.
As to `O=C(NCc1ccc2nccnc2c1)c1nc(C2CC2)cnc1Nc1cncnc1` [Roche-Dataset for PDE10A, Compound 699], the IC50 was 141 nM.
For `COc1cccc(-c2cn3c(n2)C[C@H](NC(=O)c2c(C(=O)N4CCC4)cnn2C)CC3)c1` [Roche-Dataset for PDE10A, Compound 148] the value was 910 nM; for `CC(C)(O)CNC(=O)c1cc(C#N)ccc1NC(=O)c1nc(C2CC2)cnc1Nc1cncnc1` [US8703768, 262], 0.71 nM.
`Cc1ncc(C(C)C)c2nc(CCc3nc(N4CCCC4)nn3C)nn12` [Roche-Dataset for PDE10A, Compound 672] had an IC50 of 7.01 nM.
`CN(C)C(=O)c1cnn(Cc2ccccc2)c1C(=O)Nc1ccn2nc(N3CCOCC3)nc2c1` [Roche-Dataset for PDE10A, Compound 1136]: the IC50 was 868 nM. This IC50 is about 120-fold higher than that of the compound before.
Regarding `Cc1nc2nc(CCc3nc(-c4ccccc4)cn3C)[nH]c(=O)c2n1C` [Roche-Dataset for PDE10A, Compound 687], the IC50 was 331 nM.
`CN(C)c1nc(/C=C/c2nc(Br)cs2)nc2ccc(Cl)cc12` [Roche-Dataset for PDE10A, Compound 612] displayed an IC50 of 1470 nM.
With `Cc1nc2ccccc2nc1CCc1nc(-c2ccccc2)cn1CC(F)(F)F` [Roche-Dataset for PDE10A, Compound 72], the IC50 amounted to 178 nM.
Consider `CNC(=O)c1cc2[nH]c(-c3ccccc3)nc2cc1NC(=O)c1cc(C)on1` [Roche-Dataset for PDE10A, Compound 557], for which it took 189 nM to reach half-maximal inhibition (IC50).
In turn, `CS(=O)(=O)Nc1cccc(NC(=O)c2nc(C3CC3)cnc2Nc2cncnc2)c1` [Roche-Dataset for PDE10A, Compound 900] registered an IC50 of 15 nM.
Regarding `Cc1cncc(CCc2nc(N3CCCC3)nn2C)n1` [Roche-Dataset for PDE10A, Compound 989], the IC50 amounted to 7900 nM.
Take `O=C(N[C@@H]1CCN(c2ccc(Cl)nn2)C1)c1nc(C2CC2)ccc1Nc1cncnc1` [Roche-Dataset for PDE10A, Compound 923]: 12 nM corresponded to half-maximal inhibition (IC50).
For `Cc1ncc(C)n2nc(CCc3nc(-c4cn[nH]c4)nn3C)nc12` [Roche-Dataset for PDE10A, Compound 961], the midpoint of inhibition, the IC50, lay at 87 nM.
For `CN(CCF)C(=O)c1cnn(C)c1C(=O)N[C@@H]1CCn2cc(-c3ccccc3)nc2C1` [Roche-Dataset for PDE10A, Compound 190] the value was 205 nM; for `Cc1cc(Cl)cc2c(=O)[nH]c(CCc3nc(-c4ccccc4)cn3C)nc12` [Roche-Dataset for PDE10A, Compound 70], 81 nM.

Values taken from BindingDB's records for doi:10.1007/s10822-022-00478-x (Roche Innovation Center Basel, F. Hoffmann-La Roche Ltd., 2022).
